In ChEMBL document CHEMBL5233280, “Berberine improves liver injury induced glucose and lipid metabolic disorders via alleviating ER stress of hepatocytes and modulating gut microbiota in mice” (Bioorg Med Chem, 2021) one finds Activity data, which are given here for one compound.

Structures are written as SMILES. Calls of active or inactive are those of the source. The calls are words filed in the database; no cut-off is given here.

Format in all cases: functional, organism-based
For test [1], the system named is Mus musculus. In words: Protection against tunicamycin-induced liver injury-mediated hepatic metabolic disorders in C57BL/6 mouse assessed as increase in SCD1 gene expression at 75 to 300 mg/kg, ig administered for 3 days and on day 3 administered with tunicamycin after 2 hrs and measured after 24 hrs by RT-qPCR analysis. The conditions noted are these: dose 75-300 mg/kg, time 4.0 day.

Test [2] has as its system Mus musculus. In words: Protection against tunicamycin-induced gut microbiota dysbiosis in C57BL/6 mouse assessed as increase in Epsilonbacteraeota-abundance in colon at 75 to 300 mg/kg, ig administered for 3 days and on day 3 administered with tunicamycin after 2 hrs and measured after 24 hrs. The conditions noted are these: dose 75-300 mg/kg, time 4.0 day.
Test [3] deals with Mus musculus. In words: Protection against tunicamycin-induced liver injury-mediated hepatic metabolic disorders in C57BL/6 mouse assessed as increase in PPARgamma1 gene expression at 75 to 300 mg/kg, ig administered for 3 days and on day 3 administered with tunicamycin after 2 hrs and measured after 24 hrs by RT-qPCR analysis. The conditions noted are these: dose 75-300 mg/kg, time 4.0 day. (Real-time PCR tracks product formation cycle by cycle.)

Test [4] deals with Mus musculus. In words: Protection against tunicamycin-induced liver injury-mediated hepatic metabolic disorders in C57BL/6 mouse assessed as HDL-C level in liver at 75 to 300 mg/kg, ig administered for 3 days and on day 3 administered with tunicamycin after 2 hrs and measured after 24 hrs. The following applies: dose 75-300 mg/kg, time 4.0 day.
Test [5] deals with Mus musculus. In words: Protection against tunicamycin-induced UPR response in C57BL/6 mouse assessed as downregulation of phosphorylated eIF2alpha protein expression in liver at 150 mg/kg, ig administered for 3 days and on day 3 administered with tunicamycin after 2 hrs and measured after 24 hrs by western blot analysis. The conditions noted are these: time 4.0 day.
Test [6] has as its system Mus musculus. In words: Protection against tunicamycin-induced liver injury-mediated hepatic metabolic disorders in C57BL/6 mouse assessed as increase in PPARgamma2 gene expression at 75 to 300 mg/kg, ig administered for 3 days and on day 3 administered with tunicamycin after 2 hrs and measured after 24 hrs by RT-qPCR analysis. The conditions noted are these: dose 75-300 mg/kg, time 4.0 day.

In test [7] the test system is Mus musculus. In words: Protection against tunicamycin-induced ER stress in C57BL/6 mouse assessed as downregulation of CHOP gene expression in liver at 150 mg/kg, ig administered for 3 days and on day 3 administered with tunicamycin after 2 hrs and measured after 24 hrs by RT-qPCR analysis. The following applies: time 4.0 day.
The subject of test [8] is Mus musculus. In words: Protection against tunicamycin-induced liver injury-mediated hepatic metabolic disorders in C57BL/6 mouse assessed as increase in ACCalpha1 gene expression at 75 to 300 mg/kg, ig administered for 3 days and on day 3 administered with tunicamycin after 2 hrs and measured after 24 hrs by RT-qPCR analysis. The conditions noted are these: dose 75-300 mg/kg, time 4.0 day.

The subject of test [9] is Mus musculus. In words: Protection against tunicamycin-induced liver injury-mediated hepatic metabolic disorders in C57BL/6 mouse assessed as increase in CYP7A1 gene expression at 75 to 300 mg/kg, ig administered for 3 days and on day 3 administered with tunicamycin after 2 hrs and measured after 24 hrs by RT-qPCR analysis. The conditions noted are these: dose 75-300 mg/kg, time 4.0 day.

Test [10] concerns Mus musculus. In words: Protection against tunicamycin-induced liver injury-mediated hepatic metabolic disorders in C57BL/6 mouse assessed as inhibition of lipid metabolic disorders by measuring increase in plasma TG level at 75 to 300 mg/kg, ig administered for 3 days and on day 3 administered with tunicamycin after 2 hrs and measured after 24 hrs. The following applies: dose 75-300 mg/kg, time 4.0 day.

In test [11] the test system is Mus musculus. In words: Protection against tunicamycin-induced gut microbiota dysbiosis in C57BL/6 mouse assessed as decrease in ratio of Prevotellaceae-to-Erysipelotrichaceae in colon at 75 to 300 mg/kg, ig administered for 3 days and on day 3 administered with tunicamycin after 2 hrs and measured after 24 hrs. The following applies: dose 75-300 mg/kg, time 4.0 day.

Test [12] concerns Mus musculus. In words: Protection against tunicamycin-induced ER stress-mediated liver injury in C57BL/6 mouse assessed as plasma ALT level at 75 to 300 mg/kg, ig administered for 3 days and on day 3 administered with tunicamycin after 2 hrs and measured after 24 hrs. The following applies: dose 75-300 mg/kg, time 4.0 day.
The subject of test [13] is Mus musculus. In words: Protection against tunicamycin-induced liver injury-mediated hepatic metabolic disorders in C57BL/6 mouse assessed as increase in CD36 gene expression at 150 mg/kg, ig administered for 3 days and on day 3 administered with tunicamycin after 2 hrs and measured after 24 hrs by RT-qPCR analysis. The following applies: time 4.0 day.
For test [14], the system named is Mus musculus. In words: Protection against tunicamycin-induced liver injury-mediated hepatic metabolic disorders in C57BL/6 mouse assessed as TC level in liver at 75 to 300 mg/kg, ig administered for 3 days and on day 3 administered with tunicamycin after 2 hrs and measured after 24 hrs. The following applies: dose 75-300 mg/kg, time 4.0 day.
Test [15] has as its system Mus musculus. In words: Protection against tunicamycin-induced gut microbiota dysbiosis in C57BL/6 mouse assessed as increase in proteobacteria abundance in colon at 75 to 300 mg/kg, ig administered for 3 days and on day 3 administered with tunicamycin after 2 hrs and measured after 24 hrs. The conditions noted are these: dose 75-300 mg/kg, time 4.0 day.
The test system of test [16] is Mus musculus. In words: Protection against tunicamycin-induced ER stress in C57BL/6 mouse assessed as downregulation of GRP78 gene expression in liver at 150 mg/kg, ig administered for 3 days and on day 3 administered with tunicamycin after 2 hrs and measured after 24 hrs by RT-qPCR analysis. The following applies: time 4.0 day.
Test [17] concerns Mus musculus. In words: Protection against tunicamycin-induced gut microbiota dysbiosis in C57BL/6 mouse assessed as increase in Erysipelotrichaceae- abundance in colon at 75 to 300 mg/kg, ig administered for 3 days and on day 3 administered with tunicamycin after 2 hrs and measured after 24 hrs. The conditions noted are these: dose 75-300 mg/kg, time 4.0 day.
In test [18] the test system is Mus musculus. In words: Protection against tunicamycin-induced liver injury-mediated hepatic metabolic disorders in C57BL/6 mouse assessed as increase in FXR gene expression at 75 to 300 mg/kg, ig administered for 3 days and on day 3 administered with tunicamycin after 2 hrs and measured after 24 hrs by RT-qPCR analysis. The conditions noted are these: dose 75-300 mg/kg, time 4.0 day.

For test [19], the system named is Mus musculus. In words: Protection against tunicamycin-induced gut microbiota dysbiosis in C57BL/6 mouse assessed as decrease in prevotellaceae-abundance in colon at 75 to 300 mg/kg, ig administered for 3 days and on day 3 administered with tunicamycin after 2 hrs and measured after 24 hrs. The conditions noted are these: dose 75-300 mg/kg, time 4.0 day.
Test [20] has as its system Mus musculus. In words: Protection against tunicamycin-induced ER stress-mediated liver injury in C57BL/6 mouse assessed as plasma AST level at 75 to 300 mg/kg, ig administered for 3 days and on day 3 administered with tunicamycin after 2 hrs and measured after 24 hrs. The conditions noted are these: dose 75-300 mg/kg, time 4.0 day.

Take `COc1ccc2cc3[n+](cc2c1OC)CCc1cc2c(cc1-3)OCO2`: the outcome with Mus musculus [1], with Mus musculus [3], with Mus musculus [4], in the test on Mus musculus [6], with Mus musculus [8] and in the test with Mus musculus [9] was inactive. For the same compound, the outcome in the test with Mus musculus [12], in the test on Mus musculus [14], in the test with Mus musculus [18] and with Mus musculus [20] was inactive. Moreover, the outcome with Mus musculus [2], with Mus musculus [5], in the test on Mus musculus [7], in the test with Mus musculus [10], in the test with Mus musculus [11] and with Mus musculus [13] was Active. Moreover, the result in the test with Mus musculus [15], in the test on Mus musculus [16], in the test on Mus musculus [17] and in the test with Mus musculus [19] was Active.
